From patent US20180016593A1, “HERBICIDE-RESISTANT SUNFLOWER PLANTS, POLYNUCLEOTIDES ENCODING HERBICIDE-RESISTANT ACETOHYDROXYACID SYNTHASE LARGE SUBUNIT PROTEINS, AND METHODS OF USE” (priority 2005, published 2018)
Where “and” joins values, the source holds several entries; their conditions need not be identical. Identical values can stand only once. Like-named read-outs stand apart in the source and are kept apart here.

Key:
[1] = system: sunflower lines carrying the A205V mutation; assay type: in vivo, Helianthus annuus; details: 14 DAT; for root dry weight, Dif with Control / biomass accumulation, Dif with Control / plant height, Dif with Control: A205V mean; for biomass accumulation, Mean / root dry weight, Mean / plant height, Mean: six A205V genotypes; for Phytotoxicity Index, Mean: three A205V genotypes
Description: (§1) A greenhouse study was conducted to quantify and contrast the imazapir sensivity of the mutants A122T and A205V in different genetic backgrounds at the whole plant level in sunflower. Seeds of the different sunflower lines that were used in this study were obtained under field conditions.
(§2) Seeds were sown in Petri dishes and, after germination, plantlets were transplanted to pots of 10 cm of diameter in a potting media consisting of equal parts of vermiculite, soil and sand. Plants were grown in a greenhouse under natural light conditions supplemented with 400 W sodium halide lamps to provide a 16 hrs daylength. Day/night temperatures were 25 and 20° C., respectively. At the V2 stage 10 plants of each genotype were randomly assigned to each treatment consisting of […] imazapir doses (0, 40, 80, 160, 240, 320, 400 and 480 g ai/ha), and a zero-time biomass determination. Experiment was arranged as a randomized block design with a full factorial (sunflower line×treatment) arrangement of treatments and 10 replications.
(§3) On the day of herbicide application ten plants of each genotype were cut at the cotyledonal node and dried at 60° C. for 48 hrs zero-time for dried weight determination.
(§4) Height was determined as the distance between the cotyledonal node and the apex of each plant. For root biomass determination, each plant was taken from the pot and the potting media was washed out from the roots. Above ground biomass data from each line were converted to biomass accumulation after application by subtracting the appropriate average zero-time biomass from each sample. Dry biomass data were converted to percentages of the untreated control plants within each line to allow direct comparisons between groups. […]

[2] = system: sunflower TH10 (Restorer Line, A205V); assay type: in vivo, Helianthus annuus; details: 14 DAT
Description: as §1, §2, §3, §4

CC(C)C1(C)N=C(c2ncccc2C(=O)O)NC1=O (centres unmarked) [imazapyr]
root dry weight, Dif with Control ([1]; 2x (160 g ai/ha)): 49.4 % of untreated plots
biomass accumulation, Dif with Control ([1]; 3x (240 g ai/ha)): 52.4 % of untreated plots
plant height, Dif with Control ([1]; 3x (240 g ai/ha)): 49.6 % of untreated plots
root dry weight, Dif with Control ([1]; 3x (240 g ai/ha)): 60.8 % of untreated plots
biomass accumulation, Dif with Control ([1]; 4x (320 g ai/ha)): 64.6 % of untreated plots
plant height, Dif with Control ([1]; 4x (320 g ai/ha)): 66.3 % of untreated plots
root dry weight, Dif with Control ([1]; 4x (320 g ai/ha)): 68.9 % of untreated plots
biomass accumulation, Dif with Control ([1]; 5x (400 g ai/ha)): 67.6 % of untreated plots
plant height, Dif with Control ([1]; 5x (400 g ai/ha)): 68.0 % of untreated plots
root dry weight, Dif with Control ([1]; 5x (400 g ai/ha)): 69.3 % of untreated plots
biomass accumulation, Dif with Control ([1]; 6x (480 g ai/ha)): 70.0 % of untreated plots
root dry weight, Dif with Control ([1]; 6x (480 g ai/ha)): 75.6 % of untreated plots
plant height, Dif with Control ([1]; 6x (480 g ai/ha), listed as imazapir): 68.9 % of untreated plots and 69.8 % of untreated plots
biomass accumulation, Mean ([1]; 0.5x (40 g ai/ha)): 94.5 % of untreated plots
root dry weight, Mean ([1]; 0.5x (40 g ai/ha)): 87.2 % of untreated plots
biomass accumulation, Mean ([1]; 1x (80 g ai/ha)): 82.2 % of untreated plots
root dry weight, Mean ([1]; 1x (80 g ai/ha)): 70.8 % of untreated plots
biomass accumulation, Mean ([1]; 2x (160 g ai/ha)): 61.6 % of untreated plots
plant height, Mean ([1]; 2x (160 g ai/ha)): 69.2 % of untreated plots
root dry weight, Mean ([1]; 2x (160 g ai/ha)): 50.6 % of untreated plots
biomass accumulation, Mean ([1]; 3x (240 g ai/ha)): 47.6 % of untreated plots
plant height, Mean ([1]; 3x (240 g ai/ha)): 50.4 % of untreated plots
root dry weight, Mean ([1]; 3x (240 g ai/ha)): 39.2 % of untreated plots
biomass accumulation, Mean ([1]; 4x (320 g ai/ha)): 35.4 % of untreated plots
plant height, Mean ([1]; 4x (320 g ai/ha)): 33.7 % of untreated plots
root dry weight, Mean ([1]; 4x (320 g ai/ha)): 31.1 % of untreated plots
biomass accumulation, Mean ([1]; 5x (400 g ai/ha)): 32.4 % of untreated plots
plant height, Mean ([1]; 5x (400 g ai/ha)): 32.0 % of untreated plots
root dry weight, Mean ([1]; 5x (400 g ai/ha)): 30.7 % of untreated plots
biomass accumulation, Mean ([1]; 6x (480 g ai/ha)): 30.0 % of untreated plots
plant height, Mean ([1]; 6x (480 g ai/ha)): 30.2 % of untreated plots
root dry weight, Mean ([1]; 6x (480 g ai/ha)): 24.4 % of untreated plots
Phytotoxicity Index, Mean ([1]; 2x (160 g ai/ha)): 2.2
Phytotoxicity Index, Mean ([1]; 3x (240 g ai/ha)): 5.1
Phytotoxicity Index, Mean ([1]; 4x (320 g ai/ha)): 7.4
Phytotoxicity Index, Mean ([1]; 5x (400 g ai/ha)): 8.2
Phytotoxicity Index, Mean ([1]; 6x (480 g ai/ha)): 8.2
Phytotoxicity Index ([2]; 0.5x (40 g ai/ha)): 0
biomass accumulation (above ground dry weight) ([2]; 0.5x (40 g ai/ha)): 99.2 % of untreated plots
plant height ([2]; 0.5x (40 g ai/ha)): 99.2 % of untreated plots
root dry weight ([2]; 0.5x (40 g ai/ha)): 90.3 % of untreated plots
Phytotoxicity Index ([2]; 1x (80 g ai/ha)): 0
biomass accumulation (above ground dry weight) ([2]; 1x (80 g ai/ha)): 85.0 % of untreated plots
plant height ([2]; 1x (80 g ai/ha)): 98.1 % of untreated plots
root dry weight ([2]; 1x (80 g ai/ha)): 69.9 % of untreated plots
Phytotoxicity Index ([2]; 2x (160 g ai/ha)): 3.1
biomass accumulation (above ground dry weight) ([2]; 2x (160 g ai/ha)): 58.1 % of untreated plots
plant height ([2]; 2x (160 g ai/ha)): 63.6 % of untreated plots
root dry weight ([2]; 2x (160 g ai/ha)): 41.3 % of untreated plots
Phytotoxicity Index ([2]; 3x (240 g ai/ha)): 3.9
biomass accumulation (above ground dry weight) ([2]; 3x (240 g ai/ha)): 48.1 % of untreated plots
plant height ([2]; 3x (240 g ai/ha)): 51.9 % of untreated plots
root dry weight ([2]; 3x (240 g ai/ha)): 42.8 % of untreated plots
Phytotoxicity Index ([2]; 4x (320 g ai/ha)): 5.9
biomass accumulation (above ground dry weight) ([2]; 4x (320 g ai/ha)): 28.8 % of untreated plots
plant height ([2]; 4x (320 g ai/ha)): 27.5 % of untreated plots
root dry weight ([2]; 4x (320 g ai/ha)): 22.3 % of untreated plots
Phytotoxicity Index ([2]; 5x (400 g ai/ha)): 6.9
biomass accumulation (above ground dry weight) ([2]; 5x (400 g ai/ha)): 27.4 % of untreated plots
plant height ([2]; 5x (400 g ai/ha)): 26.0 % of untreated plots
root dry weight ([2]; 5x (400 g ai/ha)): 22.7 % of untreated plots
Phytotoxicity Index ([2]; 6x (480 g ai/ha)): 6.7
biomass accumulation (above ground dry weight) ([2]; 6x (480 g ai/ha)): 24.9 % of untreated plots
plant height ([2]; 6x (480 g ai/ha)): 29.3 % of untreated plots
root dry weight ([2]; 6x (480 g ai/ha)): 16.4 % of untreated plots
